Experiments:
[1] = Solubility of TMC278 and of TMC278 recrystallized from DMSO; assay type: physicochemical
Protocol: In addition to increasing the water uptake into the bulk of the polymer, excipients can be used to decrease the crystallinity of the TMC278 and thereby lower the energy necessary to solubilize the drug. […] The recrystallized TMC278 was prepared by dissolving 10 grams of TMC278 in 800 ml of DMSO under gentle stirring for 2 hours. One hundred milliliters of the solution was subsequently poured into a flat bottomed aluminum mold. Solution was lyophilized using a Dora-Stop MTS system. Lyophilized TMC278 was collected. Two grams of PLGA 50/50 were fed into DACA compounder that was pre-set to 120° C. with screws rotating at 100 rpm. After the polymer was fed into the DACA and melted, two grams of lyophilized TMC278 were fed into the compounder and mixed at the set conditions for an additional 5 minutes. The extruded strands were collected, cooled in ambient conditions and placed in plastic bags and stored in a nitrogen box for analysis.
The lowered crystallinity of the TMC278 when re-crystallized from DMSO is also reflected in the change of the appearance of the TMC278 crystals following the recrystallization procedure. The morphology of the TMC278 particles in the drug powder appear compact and needle-shaped, but after the recrystallization process the particles are highly porous (FIG. 3). […]

[2] = Effect of gamma irradiation process parameters on recovery of TMC278 from polymer specimens; assay type: physicochemical
Protocol: For those samples that were irradiated under a nitrogen atmosphere, the following procedure was followed. Polymer implants were prepared containing 60% TMC278 and 40% PLGA 50/50 as described above. Samples were placed in Nalgene™ cuvettes inside the antechamber of a nitrogen glovebox. An automatic vacuum cycle was executed consisting of three 8 minute vacuum purges each followed by nitrogen refilling. The samples were transferred to the main chamber and allowed to equilibrate overnight. The cuvettes were placed in foil pouches and the pouches were sealed before removal from the nitrogen glovebox. Samples were removed from glovebox and irradiated as directed.
Those samples that were irradiated under ambient conditions were placed in vials and aluminum pouches, which were heat sealed under ambient conditions and were stored at 0° C. until they reached that temperature. The samples that were processed at 0° C. were stored at 0° C. Subsequently, the samples were removed from freezer environment and immediately placed in the irradiator. […]
From the data it can be seen that exposure level of irradiation is the most significant factor in achieving complete recovery of TMC278 from irradiated samples. […] In addition, the samples that were exposed to 15 kgy irradiation under nitrogen environment were analyzed for impurities stemming from TMC278 degradation.

[3] = clinical studies; less frequent than with marketed NNRTIs; cited from earlier work

Cc1cc(C=CC#N)cc(C)c1Nc1ccnc(Nc2ccc(C#N)cc2)n1 [TMC278, 4-[[4-[[4-(2-cyanoethenyl)-2,6-dimethylphenyl}-amino]-2-pyrimidinyl]-amino]-benzonitrile]
Solubility in DMSO ([1]; DMSO): highly soluble | Impurities stemming from TMC278 degradation (mass spectrometry) ([2]; 15 kgy irradiation under nitrogen environment): no new impurities formed by the irradiation | TMC278 recovered (average) ([2]; irradiated at 25 kgy (under nitrogen)): 81% | Side effects [3]: nausea, dizziness, abnormal dreams, dyspepsia, asthenia, skin rashes, somnolence and vertigo

Cc1cc(/C=C/C#N)cc(C)c1Nc1ccnc(Nc2ccc(C#N)cc2)n1 [recrystallized TMC278]
Solubility relative to unrecrystallized TMC278 ([1]; recrystallized (lyophilized from DMSO) versus unrecrystallized TMC278): more than 250 ×
